Results taken from patent US9512128B2 (BAYER CROPSCIENCE AG, priority 2012, dated 2016).
Where two headings read alike, the source gives them in different places.

How the values were obtained:
[1] = test system: greenhouse red spider mite (Tetranychus urticae); assay: Tetranychus urticae spray test, OP-resistant (TETRUR); format: in vivo; details: after 6 days, bean leaf discs
Protocol: 4. Tetranychus urticae Spray Test, OP-Resistant (TETRUR)
• Solvents: 78.0 parts by weight of acetone • 1.5 part by weight of dimethylformamide • Emulsifier: 0.5 part by weight of alkylaryl polyglycol ether
To produce a suitable preparation of active compound, 1 part by weight of active compound is mixed with the stated amounts of solvents and emulsifier, and the concentrate is diluted with emulsifier-containing water to the desired concentration.
Discs of bean leaves (Phaseolus vulgaris) which are infested by all stages of the greenhouse red spider mite (Tetranychus urticae) are sprayed with an active compound preparation of the desired concentration.
After 6 days, the efficacy in % is determined. 100% means that all of the spider mites have been killed; 0% means that none of the spider mites have been killed.

[2] = log P by HPLC on reversed-phase columns (C 18), EEC directive 79/831 Annex V.A8; format: physicochemical; details: for logP[a]: method [a]; for logP[b]: method [b]; for chromatographic logP: reversed-phase C18 HPLC column
Protocol: The log P values were determined according to EEC directive 79/831 Annex V.A8 by HPLC (High Performance Liquid Chromatography) on reversed-phase columns (C 18), using the methods below:
[a] The LC-MS determination in the acidic range is carried out at pH 2.7 with 0.1% aqueous formic acid and acetonitrile (contains 0.1% formic acid) as mobile phases; linear gradient from 10% acetonitrile to 95% acetonitrile.
[b] The LC-MS determination in the neutral range is carried out at pH 7.8 using the mobile phases 0.001 molar aqueous ammonium bicarbonate solution and acetonitrile; linear gradient from 10% acetonitrile to 95% acetonitrile.

Row | SMILES | efficacy in % (spider mites killed) ([1]; application rate 500 g/ha) [%] | also measured
1 | Cc1cc(C)c(-n2cnc3sccc3c2=O)cc1SCC(F)(F)F [Compound 91] | 100 | logP[a] [2]: 3.34; logP[b] [2]: 3.25
2 | Cc1cc(F)c(-n2cnc3nn(C)cc3c2=O)cc1SCC(F)(F)F [Compound 173] | 90 | –
3 | Cc1cc(F)c(-n2cnc3c(C)scc3c2=O)cc1[S+]([O-])CC(F)(F)F (stereo not shown) [Compound 220] | 90 | –
4 | Cc1cc(F)c(-n2c(C)nc3c(cnn3CC(F)(F)F)c2=O)cc1SCC(F)(F)F [Compound 20] | 90 | logP[a] [2]: 3.50; logP[b] [2]: 3.44
5 | Cc1nc2c(=O)n(-c3cc([S+]([O-])CC(F)(F)F)c(C)cc3F)c(C)nc2s1 (stereo not shown) [Compound 185] | 90 | –
6 | Cc1nc2c(=O)n(-c3cc([S+]([O-])CC(F)(F)F)c(C)cc3F)cnc2s1 (stereo not shown) [Compound 190] | 90 | –
7 | Cc1cc(F)c(-n2cnc3c(C)nsc3c2=O)cc1SCC(F)(F)F [Compound 180] | 90 | –
8 | Cc1cc(C)c(-n2cnc3cnn(C)c3c2=O)cc1SCC(F)(F)F [Compound 130] | 100 | –
9 | Cc1ccc(-n2cnc3cnn(C)c3c2=O)cc1SCC(F)(F)F [Compound 138] | 100 | –
10 | Cc1cc(F)c(-n2cnc3c(ncn3C)c2=O)cc1[S+]([O-])CC(F)(F)F (stereo not shown) [Compound 179] | 100 | –
11 | Cn1ncc2ncn(-c3cc([S+]([O-])CC(F)(F)F)c(Cl)cc3Cl)c(=O)c21 (stereo not shown) [Compound 143] | 100 | –
12 | Cc1ccc(-n2cnc3nsc(C(C)(C)C)c3c2=O)cc1SCC(F)(F)F [Compound 116] | 90 | logP[a] [2]: 4.05; logP[b] [2]: 3.96
13 | CCn1cnc2c(=O)n(-c3cc([S+]([O-])CC(F)(F)F)c(C)cc3F)cnc21 (racemic) [Compound 54] | 100 | logP[a] [2]: 1.60; logP[b] [2]: 1.59
14 | Cc1cc(Cl)c(-n2c(C)nc3cnn(C)c3c2=O)cc1SCC(F)(F)F [Compound 152] | 90 | –
15 | Cc1nc2cnn(C)c2c(=O)n1-c1cc(SCC(F)(F)F)c(Cl)cc1Cl [Compound 144] | 90 | –
16 | Cc1cc(F)c(-n2cnc3c(C)n(C)nc3c2=O)cc1SCC(F)(F)F [Compound 213] | 100 | –
17 | Cc1cc(F)c(-n2c(C)nc3cnn(C)c3c2=O)cc1SCC(F)(F)F [Compound 39] | 90 | logP[a] [2]: 2.94; logP[b] [2]: 2.87
18 | Cc1cc(F)c(-n2cnc3c(C)nn(C)c3c2=O)cc1SCC(F)(F)F [Compound 128] | 100 | –
19 | Cc1cc(C)c(-n2nnc3cnn(C)c3c2=O)cc1SCC(F)(F)F [Compound 133] | 90 | –

Row | SMILES | efficacy in % (spider mites killed) ([1]; application rate 500 g/ha) [%] | also measured
20 | Cc1cc(F)c(-n2cnc3csc(C)c3c2=O)cc1[S+]([O-])CC(F)(F)F (stereo not shown) [Compound 218] | 90 | –
21 | Cc1cc(C)c(-n2cnc3ncsc3c2=O)cc1SCC(F)(F)F [Compound 76] | 90 | logP[a] [2]: 2.62; logP[b] [2]: 2.59
22 | Cc1cc(C)c([S+]([O-])CC(F)(F)F)cc1-n1cnc2scnc2c1=O (stereo not shown) [Compound 66] | 90 | logP[a] [2]: 1.6; logP[b] [2]: 1.62
23 | Cc1cc(F)c(-n2cnc3cn(C)nc3c2=O)cc1[S+]([O-])CC(F)(F)F (stereo not shown) [Compound 216] | 100 | –
24 | Cc1cc(F)c(-n2c(C)nc3cnn(C)c3c2=O)cc1SCC(F)(F)F [Compound 139] | 100 | –
25 | Cc1cc(Cl)c(-n2nnc3cnn(C)c3c2=O)cc1SCC(F)(F)F [Compound 154] | 90 | –
26 | Cn1ncc2ncn(-c3cc([S+]([O-])CC(F)(F)F)c(Cl)cc3F)c(=O)c21 (stereo not shown) [Compound 156] | 100 | –
27 | Cc1cc(F)c(-n2cnc3csc(C)c3c2=O)cc1SCC(F)(F)F [Compound 217] | 90 | –
28 | Cc1cc(F)c(-n2cnc3c(ncn3C)c2=O)cc1SCC(F)(F)F [Compound 52] | 90 | logP[a] [2]: 2.17; logP[b] [2]: 2.11
29 | Cc1cc(C)c(-n2c(C)nc3cnn(C)c3c2=O)cc1SCC(F)(F)F [Compound 131] | 90 | –
30 | Cc1nc2c(=O)n(-c3cc(SCC(F)(F)F)c(C)cc3F)cnc2s1 [Compound 189] | 90 | –
31 | Cc1cc(F)c(-n2c(C)nc3cnn(C(C)C)c3c2=O)cc1[S+]([O-])CC(F)(F)F (stereo not shown) [Compound 166] | 100 | –
32 | Cc1cc(F)c(-n2cnc3c(C)scc3c2=O)cc1SCC(F)(F)F [Compound 219] | 100 | –
33 | Cc1cc(F)c(-n2nnc3cnn(C)c3c2=O)cc1SCC(F)(F)F [Compound 137] | 100 | –
34 | Cc1cc(F)c(-n2cnc3sccc3c2=O)cc1SCC(F)(F)F [Compound 92] | 100 | logP[a] [2]: 3.22; logP[b] [2]: 3.14
35 | CCn1ncc2c(=O)n(-c3cc([S+]([O-])CC(F)(F)F)c(C)cc3F)cnc21 (stereo not shown) [Compound 126] | 90 | –
36 | Cc1cc(Cl)c(-n2cnc3cnn(C)c3c2=O)cc1SCC(F)(F)F [Compound 151] | 100 | –
37 | Cc1cc(F)c(-n2c(C)nc3nn(C)cc3c2=O)cc1SCC(F)(F)F [Compound 174] | – | efficacy in % (spider mites killed) ([1]; application rate 100 g/ha): 90%
38 | Cc1cc(F)c(-n2c(C)nc3scnc3c2=O)cc1[S+]([O-])CC(F)(F)F (stereo not shown) [Compound 68] | 90 | logP[a] [2]: 1.72; logP[b] [2]: 1.70

Row | SMILES | efficacy in % (spider mites killed) ([1]; application rate 500 g/ha) [%] | also measured
39 | Cn1ncc2c(=O)n(-c3ccc(C#N)c([S+]([O-])CC(F)(F)F)c3)cnc21 (racemic) [Compound 26] | 90 | logP[a] [2]: 1.51; logP[b] [2]: 1.56
40 | Cc1ccc(-n2c(C)nc3cnn(C)c3c2=O)cc1[S+]([O-])CC(F)(F)F (stereo not shown) [Compound 145] | 100 | –
41 | Cc1nc2c(=O)n(-c3cc([S+]([O-])CC(F)(F)F)c(C)cc3C)c(C)nc2s1 (stereo not shown) [Compound 186] | 90 | –
42 | Cn1ncc2nnn(-c3cc(SCC(F)(F)F)c(Cl)cc3F)c(=O)c21 [Compound 150] | 100 | –
43 | CCn1cc2c(=O)n(-c3cc(SCC(F)(F)F)c(C)cc3F)cnc2n1 [Compound 176] | 90 | –
44 | Cc1cc(F)c(-n2cnc3onc(C(C)C)c3c2=O)cc1SCC(F)(F)F [Compound 193] | 100 | –
45 | Cc1cc(F)c(-n2cnc3c(C)n(C)nc3c2=O)cc1[S+]([O-])CC(F)(F)F (stereo not shown) [Compound 214] | 90 | –
46 | Cc1cc2ncn(-c3cc([S+]([O-])CC(F)(F)F)c(C)cc3F)c(=O)c2o1 (stereo not shown) [Compound 222] | 100 | –
47 | Cc1cc(F)c(-n2cnc3nsc(C(C)(C)C)c3c2=O)cc1[S+]([O-])CC(F)(F)F (stereo not shown) [Compound 192] | 90 | –
48 | Cc1cc(C)c([S+]([O-])CC(F)(F)F)cc1-n1nnc2cnn(C)c2c1=O (stereo not shown) [Compound 132] | 100 | –
49 | Cc1cc(C)c([S+]([O-])CC(F)(F)F)cc1-n1c(C)nc2cnn(C)c2c1=O (stereo not shown) [Compound 135] | 90 | –
50 | Cc1cc(F)c(-n2cnc3onc(C(F)(F)F)c3c2=O)cc1SCC(F)(F)F [Compound 197] | 100 | –
51 | Cc1cc(F)c(-n2cnc3cnn(C)c3c2=O)cc1SCC(F)(F)F [Compound 38] | 90 | logP[a] [2]: 2.76; logP[b] [2]: 2.76
52 | Cn1ncc2ncn(-c3cc(SCC(F)(F)F)c(Cl)cc3Cl)c(=O)c21 [Compound 140] | 100 | –
53 | Cc1cc(F)c(-n2nnc3c(cnn3C)c2=O)cc1SCC(F)(F)F [Compound 119, 3-{2-Fluoro-4-methyl-5-[(2,2,2-trifluoroethyl)sulphanyl]phenyl}-7-methyl-3,7-dihydro-4H-pyrazolo[3,4-d][1,2,3]triazin-4-one] | 90 | chromatographic logP ([2]; pH 2.7, acidic range, pH 2.7, 0.1% aqueous formic acid / acetonitrile, read-out: log P[a]): 3.16; chromatographic logP ([2]; pH 2.7, method [a], read-out: logP[a]): 3.16; chromatographic logP ([2]; pH 7.8, method [b], read-out: logP[b]): 3.13; chromatographic logP ([2]; pH 7.8, neutral range, pH 7.8, 0.001 molar aqueous ammonium bicarbonate / acetonitrile, read-out: log P[b]): 3.13
54 | Cc1cc(F)c(-n2cnc3ncn(C)c3c2=O)cc1[S+]([O-])CC(F)(F)F (stereo not shown) [Compound 178] | 100 | –
55 | CCn1ncc2c(=O)n(-c3cc([S+]([O-])CC(F)(F)F)c(C)cc3F)c(C)nc21 (stereo not shown) [Compound 127] | 100 | –
56 | CCc1nsc2ncn(-c3cc([S+]([O-])CC(F)(F)F)c(C)cc3F)c(=O)c12 (stereo not shown) [Compound 203] | 100 | –
57 | Cc1cc(Cl)c(-n2cnc3cnn(C)c3c2=O)cc1[S+]([O-])CC(F)(F)F (stereo not shown) [Compound 158] | 100 | –
